Where two headings read alike, the source gives them in different places.
Tests used:
[1] = FDA approved dye; cited from earlier work
[2] = Method: Mice were injected with 20 μg/Kg of IR783 and IR780 (which was 100× of the imaging dose which was 0.2 μg/Kg) and results were compared for a 28 day period. […] Zero grams means the mouse died. ICG is a FDA approved dye used for several diagnostic purposes. ICG is considered to be nontoxic. ICG is used here as a measure of the toxicity of the tested compounds.
Toxicity test of dye based on body weight gained during the treatment period from 0 to 14 days.

[3] = test system: human cancer cells: ARCaPM, C4-2, PC-3, HepG2, MCF-7, RCC, T-24, HeLa, K562, H358; assay: uptake of IR780 by human cancer cells in culture (FIG. 10); format: cell-based; conditions: 20 uM, 30 minutes, confocal microscope
Method: The uptake of IR780 by human cancer cells in culture was also studied. […] All the cells were cultured with 20 uM IR-780 in basal media (T-medium with 5% fetal bovine serum and 1% antibiotics) for 30 minutes and were imaged under confocal microscope.

[4] = test system: normal prostate fibroblasts (NPF), normal prostate epithelial cells (NPE), marrow stromal cells BMC; assay: uptake of IR780 by normal human cells in culture (FIG. 10); format: cell-based
[5] = test system: subcutaneous HepG2, C4-2, H358, HeLa, MCF-7 and ARCaPM tumors; assay: imaging of subcutaneous human tumors in mice with IR780 (FIG. 13); format: in vivo, mouse; conditions: 5 n mol tail vein, tumors 0.5-1.0 cm
Method: Subcutaneous HepG2 (human liver cancer), C4-2 (human prostate androgen-independent and metastatic cancer), H358 (human lung cancer), HeLa (human cervical cancer), MCF-7 (human breast cancer) and ARCaPM (a highly bone and soft tissue metastatic human prostate cancer) cancers were established in live mice prior to the administration of IR-780. The tumor xenografts were measured about 0.5-1.0 cm in diameter at the time of imaging. 5 n mol of IR-780 were given to mice through tail vein and imaged using Kodak multimodal-imaging system. The distribution of IR-780 in tumor tissues was conformed by imaging of frozen sections under confocal microscope. The histopathology of the tumor was confirmed by H/E staining of the frozen tissue specimens and DAPI stained cell nuclei.

[6] = tail vein injection, data not shown
ARCaPM cells = assay: confocal imaging of IR780 uptake and localization in ARCaPM cells (FIG. 11, 12); format: cell-based, human
Method: In FIG. 11, ARCaPM Cells were plated on live-cell imaging chambers from World Precision Instrument (Sarasota, Fla.) overnight. Cells were treated with IR-780 with different concentrations and were imaged using a Perkin-Elmer Ultraview ERS spinning disc confocal microscope. This system was mounted on a Zeiss Axiovert 200 m inverted microscope equipped with a 37° C. stage warmer, incubator, and CO2 perfusion. A x63 or x100 Zeiss oil objective (numerical aperture, 1.4) was used for all images and a Z-stack was created using the attached piezoelectric z-stepper motor. The 633 nm laser line of an […] (set at 60% power) was used to excite the IR-780 organic dye. For each comparison, the exposure time and laser intensity was kept identical for accurate intensity measurement. Pixel intensity was quantitated using Metamorph 6.1 (Universal Imaging, Downingtown, Pa.) and the mean pixel intensity was generated as grey level using the Region Statistics feature on the software.

[7] = test system: human ARCaPM prostate cancer cells; assay: imaging of MHI-148 tagged ARCaPM cells in test tubes (FIG. 2A); format: cell-based; conditions: 1, 10 and 100 μM, incubation 2 hours, excitation 720 nm, emission 850 nm
Method: (§1) After incubation for 2 hours, cells were washed 3 times with PBS, harvested by centrifuge and imaged. One million of the MHI-148 tagged ARCaPM cells with different concentrations were injected subcutaneously in the back of the mouse and imaged at the same time (B). […] All the in vitro and in vivo imaging was performed using a Kodak multimodal-imaging system IS2000MM (Kodak) equipped with an excitation bandpass filter at 720 nm and an emission at 850 nm. Exposure time was 30 s per image. The images were analyzed using the imaging station IS2000MM software (Kodak 1D Image Analysis Software; Kodak).

[8] = photostability of MHI-148; format: physicochemical
[9] = test system: normal prostate fibroblasts, marrow stromal cells BMC, normal vascular endothelial cells VEC, mouse macrophage RAW cells; assay: uptake of MHI-148 by normal human or mouse cells in culture (FIG. 1); format: cell-based; conditions: 100 μM, two hours
Method: (§2) All the cells were cultured with 100 μM MHI-148 in basal media (T-medium with 5% fetal bovine serum and 1% antibiotics) for two hours and were imaged under an inverted microscope. These conditions are the usual conditions used here unless otherwise specified.

[10] = distribution of MHI-148 in normal mice, in vivo and ex vivo organ imaging (FIG. 3); set-up: species or system mouse; conditions: for fluorescence of isolated liver, kidney and testis: Xenogen
Method: MHI-148 (5 nmol) was given by tail vein injection and the MHI-148 distribution followed at 2, 6, and 96 hrs. At the end of this study, mice were sacrificed at 6 or 80 hrs after MHI-148 tail vein administration. […] The isolated tissues and organs excised from mice at 6 hours and 80 hours after receiving 5 nmol MHI-148 were also imaged by the Xenogen machine and the signals were compared by fluorescence intensity.

[11] = test system: spontaneous prostate tumor in a TRAMP mouse; assay: imaging of spontaneous TRAMP prostate tumor, fresh and after fixation (FIG. 16B, C); format: in vivo; conditions: TRAMP mouse spontaneous prostate tumors, FIG. 16 legend
Method: NIR imaging studies were performed to assess pharmacokinetics of the IR783 in vivo. […] This mouse was injected i.p with 0.2 μg/kg IR783 at 0 hrs. […] The dye retention in formalin fixed tissues can be as long as several weeks (data not shown).

[12] = test system: normal prostate epithelial cells NPE and normal human skin epithelial cells HaCaT; assay: uptake of MHI-148 by normal epithelial cells in culture (FIG. 1); format: cell-based; conditions: 100 μM, two hours
Method: as §2

[13] = test system: human ARCaPE, ARCaPM, and C4-2 tumors; assay: detection of multiple tumors in one mouse with MHI-148 (FIG. 5); format: in vivo; conditions: 10 nmol tail vein, 96 hrs
Method: A mouse had 5 pre-established human ARCaPE, ARCaPM, and C4-2 tumors in the back by subcutaneous injection of tumor cells. Four tumors were measured with 0.2-1.0 cm in diameter and one tumor was not detectable by visualization at the time of NHI-148 administration. […] Visual and palpation techniques could only detect four tumors, while MHI-148 (10 nmol), after tail vein administration, clearly gained access to all tumors in the live mouse and allowed tumor images to be detected in all five tumors.

[14] = test system: subcutaneous ARCaPM, intratibial C4-2, H358 and K562 tumors; assay: imaging of pre-established tumors in live mice with MHI-148 (FIG. 4); format: in vivo, mouse
Method: Subcutaneous ARCaPM and intratibial C4-2 tumors were established in live mice prior to the administration of MHI-148. The tumors measured about 0.5-1.0 cm in diameter at the time of imaging. 10 nmol of MHI-148 was given to mice through tail vein and imaged using Kodak multimodal-imaging system. Human lung (H358) and leukemia (K562) cancer cells were injected subcutaneously into one side of the shoulder of mice. When the tumors were about 1-2 cm in diameter, 10 nmol MHI-148 was given through tail vein and tumor images were taken at 96 hrs after MHI-148 administration.

[15] = test system: spontaneously developed prostate tumor; assay: imaging of spontaneous prostate tumor in TRAMP transgenic mouse with MHI-148 (FIG. 8); format: in vivo
Source text: 10 nmol of MHI-148 was given to a 46 week-old TRAMP transgenic mouse with spontaneously developed prostate tumor mass and imaged after 4 hrs after MHI-148 injection (panel A). […] Surgical dissection of this mouse confirmed […] was present (panel C).

C4-2 tumor = assay: imaging of live and necrotic intratibial C4-2 tumors with MHI-148 (FIG. 6); format: in vivo, mouse; conditions: 10 nmol tail vein, imaged after 48 hrs
Method: C4-2 cells were injected into both sides of tibia of one mouse. When one tumor was developed to size with visible necrosis and the other tumor still in the fast growing phase, 10 nmol MHI-148 was given through tail vein. After 48 hrs, the mouse was imaged. […] The histopathology of the tumors was confirmed by the H/E stain (see upper right panel).

[16] = test system: human cancer cells: LNCaP, ARCaPE, ARCaPM, C4-2, PC-3, HepG2, MG63, MCF-7, RCC, T-24, HeLa, K562, H358; assay: uptake of MHI-148 by human cancer cells in culture (FIG. 1); format: cell-based; conditions: 100 μM, two hours, T-medium with 5% fetal bovine serum, inverted microscope
Method: as §2

Cancer cell = assay: CellTiter 96 Aqueous One Solution Cell Proliferation Assay (FIG. 7); format: cell-based; conditions: different concentrations, 48 hrs, T-medium 5% FBS
Method: Cancer cell were plated in 96-well plates in T-medium containing 5% FBS with different concentrations of MHI-148 for 48 hrs of incubation. Cell numbers were measured using CellTiter 96 Aqueous One Solution Cell Proliferation Assay (Promega, Madison, Wis.).

[17] = test system: human ARCaPM prostate cancer cells; assay: imaging of MHI-148 tagged ARCaPM cells injected into mice (FIG. 2B, C); format: in vivo, mouse; conditions: one million ARCaPM cells tagged with 10 uM MHI-148
Method: as §1

[18] = dose 1X (imaging dose 0.2 μg/Kg), 0 day

CC1(C)C(/C=C/C=C/C=C/C=C2\N(CCCCS(=O)(=O)[O-])c3ccc4ccccc4c3C2(C)C)=[N+](CCCCS(=O)(=O)[O-])c2ccc3ccccc3c21.[Na+] [ICG, reference compound]
toxicity (general reputation) [1]: nontoxic | body weight [2, 18]: 20.43 g | body weight ([2]; dose 1X, 1 day): 20.49 g | body weight ([2]; dose 1X, 2 day): 20.51 g | body weight ([2]; dose 1X, 3 day): 21.01 g | body weight ([2]; dose 1X, 4 day): 21.43 g | body weight ([2]; dose 1X, 5 day): 22.00 g | body weight ([2]; dose 1X, 6 day): 22.34 g | body weight ([2]; dose 1X, 7 day): 22.96 g | body weight ([2]; dose 1X, 14 day): 23.87 g | body weight ([2]; dose 1X, 28 day): 25.00 g

CCCN1/C(=C/C=C2\CCCC(/C=C/C3=[N+](CCC)c4ccccc4C3(C)C)=C2Cl)C(C)(C)c2ccccc21.[I-] [IR780]
uptake of IR-780 [3]: significant uptake | uptake of IR-780 ([4]; 20 uM, 30 minutes, confocal microscope): very low uptake | uptake by normal prostate epithelial cells ([4]; data not shown): did not take up the dye | tumor images [5]: clear tumor images can be detected | uptake by normal mouse tissues [6]: failed to uptake IR780 | body weight [2, 18]: 19.00 g | body weight ([2]; dose 1X, 1 day): 19.02 g | body weight ([2]; dose 1X, 2 day): 19.71 g | body weight ([2]; dose 1X, 3 day): 20.01 g | body weight ([2]; dose 1X, 4 day): 20.32 g | body weight ([2]; dose 1X, 5 day): 20.56 g | body weight ([2]; dose 1X, 6 day): 20.97 g | body weight ([2]; dose 1X, 7 day): 21.81 g | body weight ([2]; dose 1X, 14 day): 23.56 g | body weight ([2]; dose 1X, 28 day): 24.44 g | body weight ([2]; dose 10X, 0 day): 20.71 g | body weight ([2]; dose 10X, 1 day): 20.69 g | body weight ([2]; dose 10X, 2 day): 20.70 g | body weight ([2]; dose 10X, 3 day): 21.03 g | body weight ([2]; dose 10X, 4 day): 21.24 g | body weight ([2]; dose 10X, 5 day): 21.89 g | body weight ([2]; dose 10X, 6 day): 22.00 g | body weight ([2]; dose 10X, 7 day): 22.56 g | body weight ([2]; dose 10X, 14 day): 24.00 g | body weight ([2]; dose 10X, 28 day): 24.56 g | body weight ([2]; dose 100X (20 μg/Kg), 0 day): 20.14 g | body weight ([2]; dose 100X, 1 day, zero grams means the mouse died): 0 g | body weight ([2]; dose 100X, 2 day, zero grams means the mouse died): 0 g | body weight ([2]; dose 100X, 3 day, zero grams means the mouse died): 0 g | body weight ([2]; dose 100X, 4 day, zero grams means the mouse died): 0 g | body weight ([2]; dose 100X, 5 day, zero grams means the mouse died): 0 g | body weight ([2]; dose 100X, 6 day, zero grams means the mouse died): 0 g | body weight ([2]; dose 100X, 7 day, zero grams means the mouse died): 0 g | body weight ([2]; dose 100X, 14 day, zero grams means the mouse died): 0 g | body weight ([2]; dose 100X, 28 day, zero grams means the mouse died): 0 g | subcellular localization (ARCaPM cells; co-stained with mitochondrial tracker or lysosome tracker): co-localized with mitochondrial, lysomomal and cytoplasmic compartments | effect of BSP (organic anion transporter inhibitor) on uptake (ARCaPM cells; data not shown): blocked by BSP | dependence of uptake (ARCaPM cells; different concentrations, live-cell confocal imaging): time- and concentration-dependent uptake

CC1(C)C(/C=C/C2=C(Cl)C(=C/C=C3/N(CCCCCC(=O)O)c4ccccc4C3(C)C)/CCC2)=[N+](CCCCCC(=O)O)c2ccccc21.[Br-] [MHI-148]
images of MHI-148 tagged ARCaPM cells in test tubes [7]: intense images can be readily detected | photostability [8]: relatively photostable | uptake of MHI-148 [9]: failed to yield any time- or concentration-dependent uptake | fluorescence of isolated liver, kidney and testis ([10]; 5 nmol tail vein, 6 hrs post administration): positive | fluorescence of isolated liver, kidney and testis ([10]; 5 nmol tail vein, 80 hrs post administration): void of any fluorescence signaling | time to clearance from normal organs (liver, kidney, testis, seminal vesicles) ([10]; live animals): ≤ 96 h | MHI-148 uptake by the liver and kidney ([10]; normal mice, 5 nmol tail vein, 2 and 6 hrs): can be detected | MHI-148 in live mice and dissected mouse tissues ([10]; normal mice, 5 nmol tail vein, by 96 hrs): no detectable MHI-148 | stability of dye in formalin fixation [11]: stable in formalin fixation for weeks | uptake of MHI-148 [12]: low uptake | size of smallest tumor imaged [13]: < 2 mm^3 | tumors imaged ([13]; mouse with 5 tumors): All five tumors were imaged | tumor images ([14]; 10 nmol tail vein, H358 and K562 images at 96 hrs): Clear tumor associated images are seen | fate in tumors versus host ([14]; 96 hrs after administration): accumulated in tumors | imaging of prostate tumor mass ([15]; 46 week-old TRAMP mouse, 10 nmol, 4 hrs after injection): showed clear tumor in situ | signal in mouse without tumor ([15]; young age TRAMP mouse which harbored no tumor): no signal was detected | uptake by live C4-2 tumor (right tibia) (C4-2 tumor): shown to uptake MHI-148 | uptake by necrotic or dead tumor cells (left side) (C4-2 tumor): failed to uptake MHI-148 | uptake of MHI-148 [16]: significant uptake | cancer cell growth (cell numbers) (Cancer cell): inhibition of cancer growth in vitro | image of tagged cells injected into mouse tibia [17]: can be seen in the intratibial space

Reference: US11738095B2, “Cyanine-containing compounds for cancer imaging and treatment” (Emory University, priority 2007, dated 2023)
